Here are results for 31 compounds from paper PMC7587356, “High-Throughput Screening for Inhibitors of the SARS-CoV-2 Protease Using a FRET-Biosensor” (Molecules, 2020).

The target in this experiment is SARS-CoV-2 3CLpro (Severe acute respiratory syndrome coronavirus 2, UniProt P0DTD1). Put plainly: biochemical. Type of experiment: biochemical. Also noted: Replicate_1 / Replicate_2 / mean / mean (LOPAC_screen_w_protease): unit not given here. As to conditions: for inhibition at 5 µM: 4 h.
[1] abbreviates: sheet LOPAC_screen_w_protease, primary screen with protease, 5 µM, mean of two replicates, read-out: mean.
[2] abbreviates: sheet LOPAC_screen_w_protease, primary screen with protease, 5 µM, replicate 1, read-out: Replicate_1.
Setting [3] is: sheet LOPAC_screen_w_protease, primary screen with protease, 5 µM, replicate 2, read-out: Replicate_2.
Where [4] appears, read: sheet LOPAC_screen_w_protease, LOPAC1280 primary screen with protease, 5 µM compound, mean of the two replicates, read-out: mean.
The mark [5] stands for this setting: sheet LOPAC_screen_w_protease, LOPAC1280 primary screen with protease, 5 µM compound, replicate 1, read-out: Replicate_1.
The mark [6] stands for this setting: sheet LOPAC_screen_w_protease, LOPAC1280 primary screen with protease, 5 µM compound, replicate 2, read-out: Replicate_2.
Setting [7] is: LOPAC1280 primary screen with protease, 5 µM compound, replicate 1, read-out: Replicate_1 (LOPAC_screen_w_protease).
Setting [8] is: LOPAC1280 primary screen with protease, 5 µM compound, replicate 2, read-out: Replicate_2 (LOPAC_screen_w_protease).
Setting [9] is: LOPAC1280 primary screen with protease, 5 µM compound, mean of the two replicates.
Where [10] appears, read: sheet LOPAC_screen_w_protease, LOPAC1280 primary screen at 5 µM, with protease, mean of the two replicates, read-out: mean.
The mark [11] stands for this setting: sheet LOPAC_screen_w_protease, LOPAC1280 primary screen at 5 µM, with protease, replicate 1, read-out: Replicate_1.
Where [12] appears, read: sheet LOPAC_screen_w_protease, LOPAC1280 primary screen at 5 µM, with protease, replicate 2, read-out: Replicate_2.
[13] abbreviates: sheet LOPAC_screen_w_protease, primary screen with protease, 5 µM, mean of two replicates.
Where [14] appears, read: sheet LOPAC_screen_w_protease, primary screen with protease, 5 µM, replicate 1.
Setting [15] is: sheet LOPAC_screen_w_protease, primary screen with protease, 5 µM, replicate 2.
Setting [16] is: sheet LOPAC_screen_w_protease, primary screen with protease, compound at 5 µM, mean of two replicates, read-out: mean.
Where [17] appears, read: sheet LOPAC_screen_w_protease, primary screen with protease, compound at 5 µM, replicate 1, read-out: Replicate_1.
The mark [18] stands for this setting: sheet LOPAC_screen_w_protease, primary screen with protease, compound at 5 µM, replicate 2, read-out: Replicate_2.
[19] abbreviates: sheet LOPAC_screen_w_protease, primary screen of LOPAC1280 at 5 µM with protease, mean of the two replicates, read-out: mean.
Where [20] appears, read: sheet LOPAC_screen_w_protease, primary screen of LOPAC1280 at 5 µM with protease, replicate 1, read-out: Replicate_1.
The mark [21] stands for this setting: sheet LOPAC_screen_w_protease, primary screen of LOPAC1280 at 5 µM with protease, replicate 2, read-out: Replicate_2.

Structures can show the parent of a compound that is named as a salt. Where two headings read alike, the source gives them in different places.

For `NNCCc1ccccc1` [Phenelzine sulfate], the inhibition at 5 µM runs as follows: (read-out: Replicate_1) 0.173%; (read-out: Replicate_2) -1.72%; (read-out: mean) -0.773%.
As for `CN(C)CCC(c1ccccc1)c1ccccn1` (stereo not drawn) [Pheniramine maleate], the inhibition at 5 µM was -0.749% under setting [1], 0.594% under setting [2] and -2.09% under setting [3].
`CC(COc1ccccc1)N(CCCl)Cc1ccccc1` (stereo not drawn) [Phenoxybenzamine hydrochloride]: the inhibition at 5 µM by setting is: under setting [4], 4.33%; under setting [5], 4.24%; under setting [6], 4.41%.
In the case of `Cc1ccc(N(CC2=NCCN2)c2cccc(O)c2)cc1` [Phentolamine mesylate], the inhibition at 5 µM reads like this: under setting [1], -0.0499%; under setting [2], -0.162%; under setting [3], 0.062%.
Turning to `CCCCC1C(=O)N(c2ccccc2)N(c2ccccc2)C1=O` [Phenylbutazone], the inhibition at 5 µM is, setting by setting: under setting [4], 6.15%; under setting [5], 6%; under setting [6], 6.3%.
As for `O=C1NC(=O)C(c2ccccc2)(c2ccccc2)N1` [Phenytoin sodium], the inhibition at 5 µM was 1.2% under setting [7] and 2.6% under setting [8]. Further, under setting [9], the “mean (LOPAC_screen_w_protease)” value is on record as 1.899.
For `O=C(CCc1ccc(O)cc1)c1c(O)cc(O)cc1O` [Phloretin], the inhibition at 5 µM by setting is: (read-out: Replicate_1 (LOPAC screen with protease)) 8.32%; (read-out: Replicate_2 (LOPAC screen with protease)) 5.55%; (read-out: mean (LOPAC screen with protease)) 6.94%.
Regarding `CCCCCCCCCCCCCC(=O)O[C@@H]1[C@@H](C)[C@@]2(O)[C@@H](C=C(CO)C[C@]3(O)C(=O)C(C)=C[C@@H]23)[C@@H]2C(C)(C)[C@]12OC(C)=O` [Phorbol 12-myristate 13-acetate], the inhibition at 5 µM runs as follows: (read-out: Replicate_1) 1.97%; (read-out: Replicate_2) -0.596%; (read-out: mean) 0.686%.
For `C[C@@H]1O[C@@H]1P(=O)(O)O` [Phosphomycin disodium], the inhibition at 5 µM reads like this: under setting [1], -0.258%; under setting [2], -0.0304%; under setting [3], -0.485%.
As to `O=C(O)CP(=O)(O)O` [Phosphonoacetic acid], the inhibition at 5 µM was 0.854% under setting [10], 0.755% under setting [11] and 0.954% under setting [12].
Consider `CC(C)C[C@H](NP(=O)([O-])O[C@H]1O[C@H](C)[C@@H](O)[C@H](O)[C@@H]1O)C(=O)N[C@@H](Cc1c[nH]c2ccccc12)C(=O)[O-].[Na+].[Na+]` [Phosphoramidon disodium], for which the mean under setting [13] is reported as 0.1697. Further, the Replicate_1 under setting [14] is given as 0.5227. Besides, under setting [15], the Replicate_2 was -0.1832.
Under setting [13], `O=C([O-])CCC(NC(=O)c1ccccc1C(=O)[O-])C(=O)[O-].[Na+].[Na+].[Na+]` [Phthalamoyl-L-glutamic acid trisodium] came in with a mean of 0.2394. This compound also returned a Replicate_1 under setting [14] of 0.8142. Besides, the Replicate_2 under setting [15] is reported as -0.3354.
For `COc1ccc(C(=O)NCc2cccnc2)cc1C(=O)NCc1cccnc1` [Picotamide], the inhibition at 5 µM under setting [10] came out at 0.551%, the inhibition at 5 µM under setting [11] is 1.7% and the inhibition at 5 µM under setting [12] is -0.597%.
On to `CC[C@@H]1C(=O)OC[C@@H]1Cc1cncn1C` [Pilocarpine nitrate], for which the inhibition at 5 µM reads like this: under setting [1], -0.33%; under setting [2], -0.127%; under setting [3], -0.532%.
Consider `O=c1[nH]c2ccccc2n1C1CCN(CCCC(c2ccc(F)cc2)c2ccc(F)cc2)CC1` [Pimozide], for which the inhibition at 5 µM reads like this: under setting [16], 2.77%; under setting [17], 3.25%; under setting [18], 2.29%.
Regarding `CC(N/C(=N\C#N)Nc1ccncc1)C(C)(C)C` (stereo not drawn) [Pinacidil], the inhibition at 5 µM is, setting by setting: (sheet LOPAC_screen_w_protease, LOPAC1280 at 5 µM, mean of two replicates, read-out: mean) 1.05%; (sheet LOPAC_screen_w_protease, LOPAC1280 at 5 µM, replicate 1, read-out: Replicate_1) 2.49%; (sheet LOPAC_screen_w_protease, LOPAC1280 at 5 µM, replicate 2, read-out: Replicate_2) -0.383%.
As for `CC(C)NCC(O)COc1cccc2[nH]ccc12` (stereo not drawn) [Pindolol], the inhibition at 5 µM was 0.855% under setting [10], 0.309% under setting [11] and 1.4% under setting [12].
For the compound `O=S(=O)(O)C1CCNCC1` [Piperidine-4-sulphonic acid], the mean (sheet LOPAC_screen_w_protease, LOPAC1280 primary screen with protease, 5 µM compound, mean of the two replicates) stood at 4.585. For the same compound, the Replicate_1 (sheet LOPAC_screen_w_protease, LOPAC1280 primary screen with protease, 5 µM compound, replicate 1) turned out to be 5.428. Moreover, under “sheet LOPAC_screen_w_protease, LOPAC1280 primary screen with protease, 5 µM compound, replicate 2”, the Replicate_2 is listed as 3.743.
With `NC(=O)CN1CCCC1=O` [Piracetam], the inhibition at 5 µM was 3.49% under setting [19], 5.61% under setting [20] and 1.37% under setting [21].
Consider `Cc1nc2ccccn2c(=O)c1CCN1CCC(C(=O)c2ccc(F)cc2)CC1` [Pirenperone], for which the inhibition at 5 µM under setting [10] stood at 0.688%, the inhibition at 5 µM under setting [11] was found to be 0.852% and the inhibition at 5 µM under setting [12] was found to be 0.525%.
Turning to `CN1CCN(CC(=O)N2c3ccccc3C(=O)Nc3cccnc32)CC1` [Pirenzepine dihydrochloride], the inhibition at 5 µM by setting is: under setting [7], 2.98%; under setting [8], 0.888%. Also, under setting [9], the “mean (LOPAC_screen_w_protease)” value is reported as 1.931.
As for `Cc1ccc(=O)n(-c2ccccc2)c1` [Pirfenidone], the inhibition at 5 µM under setting [19] was 4.02%, the inhibition at 5 µM under setting [20] came to 2.71% and the inhibition at 5 µM under setting [21] is 5.33%.
`O=C(O)/C=C\C(=O)O.c1cnc(N2CCN(Cc3ccc4c(c3)OCO4)CC2)nc1` [Piribedil maleate] displayed a mean (sheet LOPAC_screen_w_protease, LOPAC1280 primary screen at 5 µM, with protease, mean of the two replicates) of 0.4342. Where the note is “sheet LOPAC_screen_w_protease, LOPAC1280 primary screen at 5 µM, with protease, replicate 1”, the Replicate_1 was -0.05723. This compound also came in with a Replicate_2 (sheet LOPAC_screen_w_protease, LOPAC1280 primary screen at 5 µM, with protease, replicate 2) of 0.9256.
For the compound `CN1C(C(=O)Nc2ccccn2)=C(O)c2ccccc2S1(=O)=O` [Piroxicam], the inhibition at 5 µM under setting [16] came to 3.01%, the inhibition at 5 µM under setting [17] turned out to be 1.9% and the inhibition at 5 µM under setting [18] was determined as 4.12%.
In the case of `COc1cc([C@@H]2c3cc4c(cc3[C@H](O)[C@H]3COC(=O)[C@H]23)OCO4)cc(OC)c1OC` [Podophyllotoxin], the inhibition at 5 µM came out at 3.42% (read-out: Replicate_1), 4.17% (read-out: Replicate_2) and 3.8% (read-out: mean).
For the compound `O=C(C1CCCCC1)N1CC(=O)N2CCc3ccccc3C2C1` (stereo not drawn) [Praziquantel], the inhibition at 5 µM reads like this: under setting [19], 3.73%; under setting [20], 3.31%; under setting [21], 4.15%.
Where the note is “sheet LOPAC_screen_w_protease, LOPAC1280 at 5 µM, mean of two replicates”, `CC(=O)[C@H]1CC[C@H]2[C@@H]3CC=C4C[C@@H](OS(=O)(=O)[O-])CC[C@]4(C)[C@H]3CC[C@]12C.[Na+]` [Pregnenolone sulfate sodium] yielded a mean of 1.045. In addition, under “sheet LOPAC_screen_w_protease, LOPAC1280 at 5 µM, replicate 1”, the Replicate_1 is given as 0.04623. Moreover, the Replicate_2 (sheet LOPAC_screen_w_protease, LOPAC1280 at 5 µM, replicate 2) is listed as 2.043.
For the compound `CCCNC(C)C(=O)Nc1ccccc1C` (stereo not drawn) [Prilocaine hydrochloride], the inhibition at 5 µM was 0.116% under setting [1], 0.518% under setting [2] and -0.285% under setting [3].
Turning to `CCN(CC)CCOC(=O)c1ccc(N)cc1` [Procaine hydrochloride], the inhibition at 5 µM stood at 1.06% under setting [7] and 1.81% under setting [8]. For the same compound, the “mean (LOPAC_screen_w_protease)” value (LOPAC1280 primary screen with protease, 5 µM compound, mean of two replicates) came out at 1.433.
As to `CN1CCN(CCCN2c3ccccc3Sc3ccc(Cl)cc32)CC1` [Prochlorperazine dimaleate], the inhibition at 5 µM runs as follows: (sheet LOPAC_screen_w_protease, primary screen with protease, mean of two replicates, read-out: mean) 2.43%; (sheet LOPAC_screen_w_protease, primary screen with protease, replicate 1, read-out: Replicate_1) 4.42%; (sheet LOPAC_screen_w_protease, primary screen with protease, replicate 2, read-out: Replicate_2) 0.439%.
As to `CC(=O)[C@H]1CC[C@H]2[C@@H]3CCC4=CC(=O)CC[C@]4(C)[C@H]3CC[C@]12C` [Progesterone], the inhibition at 5 µM runs as follows: under setting [4], 5.55%; under setting [5], 3.58%; under setting [6], 7.53%.
